Source: patent publication US7473688B2, “Indolobenzazepine HCV NS5B inhibitors” (Bristol-Myers Squibb Company, priority 2005, dated 2009)
Read-outs that look alike come from different tables or passages of the source.

Legend:
HCV replicon = HCV replicon FRET assay; format: cell-based; details: Hepatitis C virus, FRET assay, read-out: EC50*
Outline: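 HCV replicon cells, with or without Renilla luciferase reporter, incubated with titrated compounds at 37 °C; Alamar blue read for cytotoxicity. NS3 protease activity read from lysates with 20 μM EDANS/DABCYL FRET peptide (340/490 nm, kinetic), or by Dual-Glo luciferase. Background from highest protease-inhibitor wells; EC50 = 50% signal reduction.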

HCV NS5B = molecular target: T1, HCV NS5B (Hepatitis C virus genotype 1b, UniProt Q9WMX2); assay: HCV NS5B RdRp enzyme assay (preincubation protocol); format: biochemical
T1 construct: The protein was expressed with an 18 amino acid C-terminal truncation to enhance the solubility; made in house; host or cells: E. coli BL21 (DE3), pET21a
Outline: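 Preincubation format: enzyme (14 nM, genotype 1b, 18-residue C-terminal truncation) meets diluted compound first; reaction started with bead-bound biotinylated dT12 primer, polyA template 0.2 nM and 0.29 μM 3H-UTP. Run 4 h, 30 °C in Hepes pH 7.5; scintillation proximity signal; IC50 fitted from seven inhibitor levels.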

T1 sequence (Q9WMX2 2420-2992): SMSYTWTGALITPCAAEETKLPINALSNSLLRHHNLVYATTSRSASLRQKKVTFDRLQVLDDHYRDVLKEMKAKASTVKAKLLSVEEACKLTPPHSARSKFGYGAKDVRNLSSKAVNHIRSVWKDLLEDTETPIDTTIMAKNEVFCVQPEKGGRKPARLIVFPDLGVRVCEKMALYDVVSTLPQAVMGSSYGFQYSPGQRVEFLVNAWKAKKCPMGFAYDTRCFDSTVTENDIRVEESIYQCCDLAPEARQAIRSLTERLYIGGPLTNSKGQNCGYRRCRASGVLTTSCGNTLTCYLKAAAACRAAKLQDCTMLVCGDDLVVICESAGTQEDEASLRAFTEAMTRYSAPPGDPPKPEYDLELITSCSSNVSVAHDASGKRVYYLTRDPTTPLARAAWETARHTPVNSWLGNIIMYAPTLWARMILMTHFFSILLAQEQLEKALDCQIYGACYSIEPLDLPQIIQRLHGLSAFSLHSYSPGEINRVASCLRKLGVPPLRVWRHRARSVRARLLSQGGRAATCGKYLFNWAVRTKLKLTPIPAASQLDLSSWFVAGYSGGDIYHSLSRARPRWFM

SMILES: COC(=O)c1ccc2c(C3CCCCC3)c3n(c2c1)CC(C(=O)N1CCC(N2CCC(F)CC2)CC1)=Cc1ccccc1-3
- EC50 (HCV replicon; Table 1): > 370 nM
- IC50 (HCV NS5B; Table 1, read-out: IC50*): > 1000 nM

SMILES: COc1ccc2c(c1)C=C(C(=O)N(C)Cc1ccco1)Cn1c-2c(C2CCCCC2)c2ccc(C(=O)NS(=O)(=O)N(C)C)cc21
- EC50 (HCV replicon; Table 1b): 30 to 1000 nM
- IC50 (HCV NS5B; Table 1b, read-out: IC50*): < 20 nM

SMILES: NC(=O)C1CCCN(C(=O)C2Cc3ccccc3-c3c(C4CCCCC4)c4ccc(C(=O)O)cc4n3C2)C1 (stereo not drawn)
- EC50 (HCV replicon; Table 1): 1000 to 10000 nM
- IC50 (HCV NS5B; Table 1, read-out: IC50*): 10 to 1000 nM

SMILES: COc1ccc2c(c1)C=C(C(=O)N1C[C@@H](C)N(CC3CC3)[C@@H](C)C1)Cn1c-2c(C2CCCCC2)c2ccc(C(=O)NS(=O)(=O)N(C)C)cc21
- EC50 (HCV replicon; Table 1b): 30 to 1000 nM
- IC50 (HCV NS5B; Table 1b, read-out: IC50*): 20 to 1000 nM

SMILES: O=C(NC1Cc2ccccc2-c2c(C3CCCCC3)c3ccc(C(=O)O)cc3n2C1)OCc1ccccc1 (stereo not drawn)
- EC50 (HCV replicon; Table 1): 70 to 1000 nM
- IC50 (HCV NS5B; Table 1, read-out: IC50*): 10 to 1000 nM

SMILES: CN(C)S(=O)(=O)NC(=O)c1ccc2c(C3CCCCC3)c3n(c2c1)CC(C(=O)N1CCC(N2CCCC(F)C2)CC1)=Cc1ccccc1-3 (stereo not drawn)
- EC50 (HCV replicon; Table 1): 70 to 1000 nM
- IC50 (HCV NS5B; Table 1, read-out: IC50*): 10 to 1000 nM

SMILES: O=C(NS(=O)(=O)N1CCOCC1)c1ccc2c(C3CCCCC3)c3n(c2c1)CC(C(=O)N1CCN(C(=O)CO)CC1)=Cc1ccccc1-3
- EC50 (HCV replicon; Table 1): 70 to 1000 nM
- IC50 (HCV NS5B; Table 1, read-out: IC50*): 10 to 1000 nM

SMILES: COc1ccc2c(c1)C=C(C(=O)N1CCC(N3CCOCC3)CC1)Cn1c-2c(C2CCCCC2)c2ccc(C(=O)NS(=O)(=O)N(C)C)cc21
- EC50 (HCV replicon; Table 1): 70 to 1000 nM
- IC50 (HCV NS5B; Table 1, read-out: IC50*): 10 to 1000 nM

SMILES: O=C(O)c1ccc2c(C3CCCCC3)c3n(c2c1)CC(C(=O)N1CCC(N2CC[C@H](F)C2)CC1)=Cc1ccccc1-3
- EC50 (HCV replicon; Table 1): 70 to 1000 nM
- IC50 (HCV NS5B; Table 1, read-out: IC50*): 10 to 1000 nM

SMILES: COc1ccc2c(c1)CC(NC(=O)N(C)CC(=O)N1CCN(C)CC1)Cn1c-2c(C2CCCCC2)c2ccc(C(=O)NS(=O)(=O)N(C)C)cc21 (stereo not drawn)
- EC50 (HCV replicon; Table 1b): 30 to 1000 nM
- IC50 (HCV NS5B; Table 1b, read-out: IC50*): 20 to 1000 nM

SMILES: CN1CCCC(CN(C)C(=O)C2Cc3ccccc3-c3c(C4CCCCC4)c4ccc(C(=O)O)cc4n3C2)C1 (stereo not drawn)
- EC50 (HCV replicon; Table 1): 70 to 1000 nM
- IC50 (HCV NS5B; Table 1, read-out: IC50*): 10 to 1000 nM

SMILES: CC(=O)NN(C)C(=O)C1Cc2ccccc2-c2c(C3CCCCC3)c3ccc(C(=O)NS(=O)(=O)N(C)C)cc3n2C1 (stereo not drawn)
- EC50 (HCV replicon; Table 1a): 30 to 1000 nM
- IC50 (HCV NS5B; Table 1a, read-out: IC50*): 10 to 1000 nM

SMILES: O=C(O)c1ccc2c(C3CCCCC3)c3n(c2c1)CC(C(=O)N1CCC(N2CCCC(F)(F)C2)CC1)=Cc1ccccc1-3
- EC50 (HCV replicon; Table 1): 70 to 1000 nM
- IC50 (HCV NS5B; Table 1, read-out: IC50*): 10 to 1000 nM

SMILES: COc1ccc2c(c1)C=C(C(=O)N1CCN(C(=O)C3(O)CC3)CC1)Cn1c-2c(C2CCCCC2)c2ccc(C(=O)NS(=O)(=O)N(C)C)cc21
- EC50 (HCV replicon; Table 1b): 30 to 1000 nM
- IC50 (HCV NS5B; Table 1b, read-out: IC50*): 20 to 1000 nM

SMILES: COc1ccc2c(c1)CC(NC(=O)N(C)CCN(C)C)Cn1c-2c(C2CCCCC2)c2ccc(C(=O)NS(=O)(=O)N(C)C)cc21 (stereo not drawn)
- EC50 (HCV replicon; Table 1b): 30 to 1000 nM
- IC50 (HCV NS5B; Table 1b, read-out: IC50*): 20 to 1000 nM

SMILES: COc1ccc2c(c1)C=C(C(=O)N1CCOC(CNC(C)=O)C1)Cn1c-2c(C2CCCCC2)c2ccc(C(=O)NS(=O)(=O)N(C)C)cc21 (stereo not drawn)
- EC50 (HCV replicon; Table 1a): 30 to 1000 nM
- IC50 (HCV NS5B; Table 1a, read-out: IC50*): < 20 nM

SMILES: COc1ccc2c(c1)CC(NC(=O)N1CCN(C(N)=O)CC1)Cn1c-2c(C2CCCCC2)c2ccc(C(=O)NS(=O)(=O)N(C)C)cc21 (stereo not drawn)
- EC50 (HCV replicon; Table 1a): 30 to 1000 nM
- IC50 (HCV NS5B; Table 1a, read-out: IC50*): 10 to 1000 nM

SMILES: O=C(NCc1cnn[nH]1)c1ccc2c(C3CCCCC3)c3n(c2c1)CC(C(=O)N1CCC(N2CCOCC2)CC1)=Cc1ccccc1-3 [drawing 203]
- EC50 (HCV replicon; Table 1): 1000 to 10000 nM
- IC50 (HCV NS5B; Table 1, read-out: IC50*): 10 to 1000 nM

SMILES: COc1ccc2c(c1)C=C(C(=O)N1CCN(C(=O)C3CC3)CC1)Cn1c-2c(C2CCCCC2)c2ccc(C(=O)NS(=O)(=O)N(C)C)cc21
- EC50 (HCV replicon; Table 1a): 30 to 1000 nM
- IC50 (HCV NS5B; Table 1a, read-out: IC50*): 10 to 1000 nM

SMILES: CC(=O)N1CCN(C(=O)C2Cc3ccccc3-c3c(C4CCCCC4)c4ccc(C(=O)NS(=O)(=O)N(C)C)cc4n3C2)CC1 (stereo not drawn)
- EC50 (HCV replicon; Table 1): 70 to 1000 nM
- IC50 (HCV NS5B; Table 1, read-out: IC50*): 10 to 1000 nM

SMILES: COc1ccc2c(c1)CC(NC(=O)N(C)CC1CCOCC1)Cn1c-2c(C2CCCCC2)c2ccc(C(=O)NS(=O)(=O)N(C)C)cc21 (stereo not drawn)
- EC50 (HCV replicon; Table 1b): 30 to 1000 nM
- IC50 (HCV NS5B; Table 1b, read-out: IC50*): 20 to 1000 nM
